Common to all, as to experiment: AK assay 384-well format, Prestwick library screening
In one assay the test system is E. cloacae. The class given is cell-based, Enterobacter cloacae. Conditions: 50 μM final drug concentration; for fold induction at 50 µM: Enterobacter cloacae, 3 h.
Assay [1] has as its system S. aureus strain USA300-0114. The class given is cell-based, Staphylococcus aureus. To be noted: 50 μM final drug concentration; for fold induction at 50 µM: Staphylococcus aureus, USA300, 3 h.
For another assay, the system named is K. pneumoniae. The class given is cell-based, Klebsiella pneumoniae. To be noted: 50 μM final drug concentration; for fold induction at 50 µM: Klebsiella pneumoniae, 3 h.
In assay [2] the test system is A. baumannii strain 98-37-09. The class given is cell-based, Acinetobacter baumannii. Conditions: 50 μM final drug concentration; for fold induction at 50 µM: Acinetobacter baumannii, 983709, 3 h.
Another assay concerns E. faecium. The class given is cell-based, Enterococcus faecium. Conditions: 50 μM final drug concentration; for fold induction at 50 µM: Enterococcus faecium, 3 h.
The subject of a further assay is E. coli. The class given is cell-based, Escherichia coli. Conditions: 50 μM final drug concentration; for fold induction at 50 µM: Escherichia coli, 3 h.
In another assay the test system is P. aeruginosa. The class given is cell-based, Pseudomonas aeruginosa. To be noted: 50 μM final drug concentration; for fold induction at 50 µM: Pseudomonas aeruginosa, 3 h.
[3] abbreviates: planktonic E. cloacae, 384-well, cutoff for positive-scoring molecules 3-fold increase, read-out: AK-based Prestwick Library Screening Results: E. cloacae (increase in extracellular AK activity).
[4] abbreviates: planktonic S. aureus, 384-well, cutoff for positive-scoring molecules 3-fold increase, read-out: AK-based Prestwick Library Screening Results: S. aureus (increase in extracellular AK activity).
The mark [5] stands for this setting: planktonic K. pneumoniae, 384-well, cutoff for positive-scoring molecules 3-fold increase, read-out: AK-based Prestwick Library Screening Results: K. pneumoniae (increase in extracellular AK activity).
Setting [6] is: planktonic A. baumannii, 384-well, cutoff for positive-scoring molecules 3-fold increase, read-out: AK-based Prestwick Library Screening Results: A. baumannii (increase in extracellular AK activity).
Where [7] appears, read: planktonic E. faecium, 384-well, cutoff for positive-scoring molecules 3-fold increase, read-out: AK-based Prestwick Library Screening Results: E. faecium (increase in extracellular AK activity).
Setting [8] is: planktonic E. coli, 384-well, cutoff for positive-scoring molecules 3-fold increase, read-out: AK-based Prestwick Library Screening Results: E. coli (increase in extracellular AK activity).
Setting [9] is: planktonic P. aeruginosa, 384-well, cutoff for positive-scoring molecules 3-fold increase, read-out: AK-based Prestwick Library Screening Results: P. aeruginosa (increase in extracellular AK activity).
Where [10] appears, read: planktonic, cutoff for positive 3-fold increase, read-out: AK-based Prestwick Library Screening Results, E. cloacae (fold increase in extracellular AK activity).
Where [11] appears, read: planktonic, cutoff for positive 3-fold increase, read-out: AK-based Prestwick Library Screening Results, S. aureus (fold increase in extracellular AK activity).
Where [12] appears, read: planktonic, cutoff for positive 3-fold increase, read-out: AK-based Prestwick Library Screening Results, K. pneumoniae (fold increase in extracellular AK activity).
The mark [13] stands for this setting: planktonic, cutoff for positive 3-fold increase, read-out: AK-based Prestwick Library Screening Results, A. baumannii (fold increase in extracellular AK activity).
[14] abbreviates: planktonic, cutoff for positive 3-fold increase, read-out: AK-based Prestwick Library Screening Results, E. faecium (fold increase in extracellular AK activity).
Setting [15] is: planktonic, cutoff for positive 3-fold increase, read-out: AK-based Prestwick Library Screening Results, E. coli (fold increase in extracellular AK activity).
Where [16] appears, read: planktonic, cutoff for positive 3-fold increase, read-out: AK-based Prestwick Library Screening Results, P. aeruginosa (fold increase in extracellular AK activity).

From US10004701B2, “Methods and compositions for treating infection” (UNIVERSITY OF ROCHESTER, priority 2012, dated 2018) come the findings set out here.

Where a name gives a salt, the structure may show the parent alone. Read-outs that look alike come from different tables or passages of the source.

In the case of `CNCC(O)c1ccc(O)cc1` (racemic) [(+,−)-Synephrine], the “AK-based Prestwick library screening result, E. cloacae (fold increase in extracellular AK activity)” value with E. cloacae (planktonic E. cloacae, positive cutoff 3-fold increase) is listed as 1.3. In assay [1] (planktonic S. aureus, positive cutoff 3-fold increase), the “AK-based Prestwick library screening result, S. aureus (fold increase in extracellular AK activity)” value was 1.0. Moreover, the “AK-based Prestwick library screening result, K. pneumoniae (fold increase in extracellular AK activity)” value in the assay with K. pneumoniae (planktonic K. pneumoniae, positive cutoff 3-fold increase) turned out to be 1.0. The “AK-based Prestwick library screening result, A. baumannii (fold increase in extracellular AK activity)” value in assay [2] (planktonic A. baumannii, positive cutoff 3-fold increase) came to 1.1. In addition, in the assay with E. faecium (planktonic E. faecium, positive cutoff 3-fold increase), the “AK-based Prestwick library screening result, E. faecium (fold increase in extracellular AK activity)” value was found to be 1.1. For the same compound, the “AK-based Prestwick library screening result, E. coli (fold increase in extracellular AK activity)” value in the assay with E. coli (planktonic E. coli, positive cutoff 3-fold increase) amounted to 1.3. In the assay with P. aeruginosa (planktonic P. aeruginosa, positive cutoff 3-fold increase), the “AK-based Prestwick library screening result, P. aeruginosa (fold increase in extracellular AK activity)” value turned out to be 1.1.

For `C[C@H](CCC(=O)O)[C@H]1CC[C@H]2[C@@H]3[C@H](O)C[C@@H]4C[C@H](O)CC[C@]4(C)[C@H]3CC[C@]12C` [Chenodiol], the fold induction at 50 µM in the assay on E. cloacae (setting [3]) worked out at 1.5; in assay [1] (setting [4]) it was 1.7; with K. pneumoniae (setting [5]), 0.8; in assay [2] (setting [6]), 1; in the assay with E. faecium (setting [7]) it was 1; in the assay on E. coli (setting [8]) it was 1.2. Further, in the assay on P. aeruginosa (setting [9]), the fold induction at 50 µM is 1.2.

As for `CN1CCCCC1CCN1c2ccccc2Sc2ccc([S+](C)[O-])cc21` (stereo not drawn) [Mesoridazine besylate], the fold induction at 50 µM in the assay with E. cloacae (setting [10]) was determined as 1.3; in assay [1] (setting [11]), 1.3; in the assay on K. pneumoniae (setting [12]), 1; in assay [2] (setting [13]) it was 1; in the assay with E. faecium (setting [14]), 1.1; with E. coli (setting [15]), 1.1. For the same compound, the fold induction at 50 µM with P. aeruginosa (setting [16]) came to 1.2.

Regarding `O=C1C[C@@H](c2ccc(O)cc2)Oc2cc(O)cc(O)c21` [Naringenine], the fold induction at 50 µM with E. cloacae (setting [10]) turned out to be 1.5; in assay [1] (setting [11]), 0.5; in the assay with K. pneumoniae (setting [12]), 0.9; in assay [2] (setting [13]) it was 1.2; in the assay with E. faecium (setting [14]) it was 0.9; in the assay with E. coli (setting [15]), 1.1. In addition, the fold induction at 50 µM with P. aeruginosa (setting [16]) amounted to 1.

In the case of `OC[C@H]1O[C@@H](Oc2ccc(O)cc2)[C@H](O)[C@@H](O)[C@@H]1O` [Arbutin], the fold induction at 50 µM in the assay on E. cloacae (planktonic E. cloacae, positive cutoff 3-fold increase, read-out: AK-based Prestwick library screening result, E. cloacae (fold increase in extracellular AK activity)) came out at 1.4; in assay [1] (planktonic S. aureus, positive cutoff 3-fold increase, read-out: AK-based Prestwick library screening result, S. aureus (fold increase in extracellular AK activity)), 1.1; in the assay with K. pneumoniae (planktonic K. pneumoniae, positive cutoff 3-fold increase, read-out: AK-based Prestwick library screening result, K. pneumoniae (fold increase in extracellular AK activity)) it was 1.2; in assay [2] (planktonic A. baumannii, positive cutoff 3-fold increase, read-out: AK-based Prestwick library screening result, A. baumannii (fold increase in extracellular AK activity)), 1.5; in the assay on E. faecium (planktonic E. faecium, positive cutoff 3-fold increase, read-out: AK-based Prestwick library screening result, E. faecium (fold increase in extracellular AK activity)), 0.9; in the assay with E. coli (planktonic E. coli, positive cutoff 3-fold increase, read-out: AK-based Prestwick library screening result, E. coli (fold increase in extracellular AK activity)), 1.2. For the same compound, the fold induction at 50 µM in the assay on P. aeruginosa (planktonic P. aeruginosa, positive cutoff 3-fold increase, read-out: AK-based Prestwick library screening result, P. aeruginosa (fold increase in extracellular AK activity)) worked out at 1.1.

For the compound `COC1=CC(=O)C[C@@H](C)[C@]12Oc1c(Cl)c(OC)cc(OC)c1C2=O` [Griseofulvin], the fold induction at 50 µM amounted to 1.3 with E. cloacae (setting [3]); 1.4 in assay [1] (setting [4]); 0.9 with K. pneumoniae (setting [5]); 1.4 in assay [2] (setting [6]); 1.1 in the assay with E. faecium (setting [7]); 1.3 in the assay on E. coli (setting [8]). In addition, the fold induction at 50 µM in the assay with P. aeruginosa (setting [9]) came out at 1.3.

In the case of `CC(COc1ccccc1)NC(C)C(O)c1ccc(O)cc1` (stereo not drawn) [Isoxsuprine hydrochloride], the fold induction at 50 µM in the assay with E. cloacae (setting [3]) amounted to 1.5; in assay [1] (setting [4]), 1.1; with K. pneumoniae (setting [5]), 1; in assay [2] (setting [6]) it was 1.5; with E. faecium (setting [7]) it was 1; with E. coli (setting [8]), 1.1. The fold induction at 50 µM with P. aeruginosa (setting [9]) amounted to 1.1.

For the compound `COc1cc2c(cc1O)C[C@H]1c3c(cc(O)c(OC)c3-2)CCN1C` [Boldine], the fold induction at 50 µM in the assay on E. cloacae (planktonic E. cloacae, […], read-out: AK-based Prestwick Library Screening Results, E. cloacae (increase in extracellular AK activity)) is 1.2; in assay [1] (planktonic S. aureus, […], read-out: AK-based Prestwick Library Screening Results, S. aureus (increase in extracellular AK activity)), 0.8; in the assay on K. pneumoniae (planktonic K. pneumoniae, […], read-out: AK-based Prestwick Library Screening Results, K. pneumoniae (increase in extracellular AK activity)) it was 0.7; in assay [2] (planktonic A. baumannii, […], read-out: AK-based Prestwick Library Screening Results, A. baumannii (increase in extracellular AK activity)) it was 0.8; in the assay on E. faecium (planktonic E. faecium, […], read-out: AK-based Prestwick Library Screening Results, E. faecium (increase in extracellular AK activity)) it was 0.9; in the assay on E. coli (planktonic E. coli, […], read-out: AK-based Prestwick Library Screening Results, E. coli (increase in extracellular AK activity)), 0.9. Further, in the assay with P. aeruginosa (planktonic P. aeruginosa, […], read-out: AK-based Prestwick Library Screening Results, P. aeruginosa (increase in extracellular AK activity)), the fold induction at 50 µM turned out to be 0.9.

Regarding `COc1ccc2c3c([nH]c2c1)C(C)=NCC3` [Harmaline hydrochloride dihydrate], the fold induction at 50 µM was determined as 1.3 with E. cloacae (planktonic, […], read-out: AK-based Prestwick Library Screening Results, E. cloacae (fold increase in extracellular AK activity)); 1.4 in assay [1] (planktonic, […], read-out: AK-based Prestwick Library Screening Results, S. aureus (fold increase in extracellular AK activity)); 0.9 in the assay on K. pneumoniae (planktonic, […], read-out: AK-based Prestwick Library Screening Results, K. pneumoniae (fold increase in extracellular AK activity)); 1 in assay [2] (planktonic, […], read-out: AK-based Prestwick Library Screening Results, A. baumannii (fold increase in extracellular AK activity)); 1 in the assay with E. faecium (planktonic, […], read-out: AK-based Prestwick Library Screening Results, E. faecium (fold increase in extracellular AK activity)); 1.1 in the assay with E. coli (planktonic, […], read-out: AK-based Prestwick Library Screening Results, E. coli (fold increase in extracellular AK activity)). Also, in the assay with P. aeruginosa (planktonic, […], read-out: AK-based Prestwick Library Screening Results, P. aeruginosa (fold increase in extracellular AK activity)), the fold induction at 50 µM is 1.
